Laboratory results from the NIST ThermoML archive (doi:10.1021/je501135p).
± gives the expanded uncertainty stated by the source. Blank lines part the entries; values can stand above or below the molecule they belong to.

Conditions: Liquid, Ebulliometric method (Recirculating still)

vapor or sublimation pressure (444.48 K): 99 ± 1 kPa | vapor or sublimation pressure (444.51 K): 99 ± 1 kPa
Compound: O=C1C=CCCC1 [2-cyclohexen-1-one]

vapor or sublimation pressure (428.01 K): 99 ± 3 kPa
Compound: O=C1CCCCC1 [cyclohexanone]

vapor or sublimation pressure (433.38 K): 99 ± 3 kPa
Compound: OC1CCCCC1 [cyclohexanol]
